# System: ASPS-1 complex tumor spheroids, viability
# Test: Anticancer human tumor ASPS-1 cell line growth inhibition;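 note: spheroids exposed to agents for 7 days after 3 days of growth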;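 for viability, T/C: 100% = DMSO vehicle treated spheroids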
# Details: for IC50: curve of first compound; for viability, T/C: stronger effect = lower value
# Excerpt: Multicellular complex tumor spheroid response to DNA repair inhibitors in combination with DNA-damaging drugs
# This study explores the anticancer activities of DNA-damaging drugs and inhibitors of DNA damage repair, both as single agents and in combinations. Complex tumor spheroids comprised of malignant cells, endothelial cells and mesenchymal stem cells served as an in vitro model for human solid tumors. This model system incorporates physiologically relevant features and patient-derived or established malignant cell lines with clinically relevant genetic alterations from many tumor types. Twenty-six patient-derived or established malignant cell lines were evaluated representing sarcoma, melanoma, small cell lung cancer (SCLC), non-small cell lung cancer (NSCLC), as well as bladder, ovarian and pancreatic cancers. The concentration ranges selected for each drug and investigational agent were based upon clinically achievable concentrations if the clinical Cmax of the agent was known.
# Compounds. The drugs and compounds olaparib (NSC753686), talazoparib (NSC767125), berzosertib (NSC777718), elimusertib (NSC800525), nedisertib (NSC802822), VX-984 (NSC792969), AZD-1390 (NSC803789), temozolomide (NSC362856), topotecan (NSC609699), trabectedin (NSC813783), staurosporine (NSC755774), and gemcitabine (NSC613327) were obtained from the National Cancer Institute (NCI) Developmental Therapeutics Program Chemical Repository. The FDA-approved anticancer drug set is available from the Developmental Therapeutics Program at https://dtp.cancer.gov/organization/dscb/obtaining/available_plates.htm. […] The stock solutions were prepared in dimethyl sulfoxide (DMSO, Sigma-Aldrich, St. Louis, MO, cat. D2650) at 400-fold the tested concentration and stored at -70 degrees C. Prior to their use, the stock solutions were diluted in fresh medium and the final DMSO concentration in the assay was 0.25% (v/v). All drugs and investigational agents were tested over a range starting from a high concentration at or near the clinical Cmax and decreasing in half-log increments. If the clinical Cmax for an agent had not been determined, the highest concentration tested was 10 microM.
# Cell Lines. The patient-derived cancer cell (PDC) lines: 156681-154-R-J1-PDC, 283228-195-R-J1-PDC, 287954-098-R-J1-PDC, 292921-168-R-J2-PDC, 349418-098-R-PDC, 425362-245-T-J1-PDC, 556581-035-R-J1-PDC, and BL0293-F563-PDC were received from the NCI Patient-Derived Models Repository (PDMR, https://pdmr.cancer.gov). The established cell lines HS-SY-2 (RRID:CVCL_8719), MPNST, and SYO-1 (RRID:CVCL_7146) were obtained from the Sloan Kettering Institute. The alveolar soft parts sarcoma cell line ASPS-1 (RRID:CVCL_S738) was established at the NCI and grown from internal seed stocks. The following established cell lines were purchased from the American Type Culture Collection (ATCC, Manassas, VA): G-401 (ATCC, cat. CRL-1441, RRID:CVCL_0270), SW982 (ATCC, cat. HTB-93, RRID:CVCL_1734), VA-ES-BJ (ATCC, cat. CRL-2138, RRID:CVCL_1785), NCI-H719 (ATCC, cat. CRL-5837, RRID:CVCL_1582), NCI-H196 (ATCC, cat. CRL-5823, RRID:CVCL_1509), NCI-H841 (ATCC, cat. CRL-5845, RRID:CVCL_1595), NCI-H1618 (ATCC, cat. CRL-5879, RRID:CVCL_1480), NCI-H1876 (ATCC, cat. CRL-5902, RRID:CVCL_1503), DMS 114 (ATCC, cat. CRL-2066; RRID:CVCL_1174), NCI-H211 (ATCC, cat. CRL-5824; RRID:CVCL_1529), and SW 1271 (ATCC, cat. CRL-2177, RRID:CVCL_1716). The small cell lung cancer cell line COR-L88 was purchased from Sigma-Aldrich (cat. 92031917-1VL, RRID:CVCL_1141). The non-small cell lung cancer cell lines NCI-H226 (RRID:CVCL_1544) and NCI-H322M (RRID:CVCL_1557) were established at the NCI and grown from internal seed stocks. Pooled donor human umbilical vein endothelial cells (HUVEC, Lonza, cat. CC-2519) and human mesenchymal stem cells (hMSC, Lonza, cat. PT-2501) were purchased from Lonza (Walkersville, MD).
# Cell Culture. All cells were maintained in an incubator at 37 degrees C and 5% CO2 with 95% humidity. […]
smiles,measurement,setting,value
[2H]c1nc(C)nc([2H])c1-c1cc(NC[C@@H](C)c2cccc3c(C(=O)NC)ccnc23)ncn1 + CC[C@@]1(O)C(=O)OCc2c1cc1n(c2=O)Cc2cc3c(CN(C)C)c(O)ccc3nc2-1,IC50,second compound 0.003 µM,> 10 µM
same,IC50,second compound 0.00949 µM,> 10 µM
same,IC50,second compound 0.03 µM,> 10 µM
same,IC50,second compound 0.0949 µM,> 10 µM
same,IC50,second compound 0.3 µM,> 10 µM
same,"viability, T/C","second compound 0.003 µM, first compound 0.0316 µM",111%
same,"viability, T/C","second compound 0.003 µM, first compound 0.1 µM",113%
same,"viability, T/C","second compound 0.003 µM, first compound 0.316 µM",110%
same,"viability, T/C","second compound 0.003 µM, first compound 1 µM",107%
same,"viability, T/C","second compound 0.003 µM, first compound 3.16 µM",107%
same,"viability, T/C","second compound 0.003 µM, first compound 10 µM",104%
same,"viability, T/C","second compound 0.00949 µM, first compound 0.0316 µM",112%
same,"viability, T/C","second compound 0.00949 µM, first compound 0.1 µM",106%
same,"viability, T/C","second compound 0.00949 µM, first compound 0.316 µM",107%
same,"viability, T/C","second compound 0.00949 µM, first compound 1 µM",108%
same,"viability, T/C","second compound 0.00949 µM, first compound 3.16 µM",97.8%
same,"viability, T/C","second compound 0.00949 µM, first compound 10 µM",100%
same,"viability, T/C","second compound 0.03 µM, first compound 0.0316 µM",103%
same,"viability, T/C","second compound 0.03 µM, first compound 0.1 µM",101%
same,"viability, T/C","second compound 0.03 µM, first compound 0.316 µM",97.8%
same,"viability, T/C","second compound 0.03 µM, first compound 1 µM",91.3%
same,"viability, T/C","second compound 0.03 µM, first compound 3.16 µM",94.6%
same,"viability, T/C","second compound 0.03 µM, first compound 10 µM",97.4%
same,"viability, T/C","second compound 0.0949 µM, first compound 0.0316 µM",67.8%
same,"viability, T/C","second compound 0.0949 µM, first compound 0.1 µM",75.8%
same,"viability, T/C","second compound 0.0949 µM, first compound 0.316 µM",67.8%
same,"viability, T/C","second compound 0.0949 µM, first compound 1 µM",66.2%
same,"viability, T/C","second compound 0.0949 µM, first compound 3.16 µM",68%
same,"viability, T/C","second compound 0.0949 µM, first compound 10 µM",68.4%
same,"viability, T/C","second compound 0.3 µM, first compound 0.0316 µM",80.2%
same,"viability, T/C","second compound 0.3 µM, first compound 0.1 µM",72.8%
same,"viability, T/C","second compound 0.3 µM, first compound 0.316 µM",77.1%
same,"viability, T/C","second compound 0.3 µM, first compound 1 µM",71.4%
same,"viability, T/C","second compound 0.3 µM, first compound 3.16 µM",74.8%
same,"viability, T/C","second compound 0.3 µM, first compound 10 µM",66.6%

# Source: PubChem BioAssay AID1845200 (Molecular Pharmacology Branch, DTP, NCI, 2023)
